What was measured:
[1] = test system: Salmonella typhimurium (ATCC 13311); assay: Bioscreen growth rate in brain heart infusion broth (synergy study); assay type: cell-based
Protocol: (§1) The following cultures were used in a study: Escherichia coli (ATCC 8739), Escherichia coli serotype O157:H7 (ATCC 700728), Salmonella typhimurium (ATCC 13311) and Salmonella entiritidis (ATCC 13076). All cultures were transferred daily in screw-capped tubes containing 10 ml brain heart infusion broth. Cultures were incubated at 30° C. without agitation. Brain heart infusion broth was prepared with increasing amounts of the mono/di glyceride and polylysine. The concentration range for the caprylic (C8) mono/di glyceride was as from 0 to 0.18% in 10 0.02% steps, for the capric (C10) mono/di glyceride was as from 0 to 0.09% in 10 0.01% steps, for the lauric (C12)mono/di glyceride was as from 0 to 0.009% in 10 0.001% steps. Mono/di glycerides were combined with polylysine. The concentration range for the polylysine was as from 0 to 0.0675% in 10 0.0075% steps, resulting in 100 different media. The pH of the media was adjusted to 6.1-6.2 with 1 N HCl or 1 N NaOH. Media were prepared in 10 ml quantities and sterilized by filtration. 300 μl of each medium was transferred to a panel of a sterile Bioscreen® honeycomb 100 well plate. Well plates were inoculated with 5 μl of a culture that was grown overnight in brain heart infusion broth using a sterile 5 μl repeating dispenser. Growth rates were determined with a Bioscreen® that kinetically measures the development of turbidity by vertical photometry. The plates were incubated for 16-24 hours at 37° C., the optical density of the cultures was measured every 30 minutes at 420-580 nm using a wide band filter. The Bioscreen® measures at set time intervals the optical density of the cultures. […] The purpose of further data processing is to ascertain whether two […] act independently of each other or whether they stimulate each other in their inhibitory action (synergy) or cancel out each other inhibitory effect (antagonism). […] This implies that only the maximum specific growth rate (μmax) value and not the affinity (Ks) is affected. Therefore the specific growth rate in the presence of inhibitor can be written as: μ=μi.s/(Ks+s), where μi is the maximal specific growth rate in the presence of a inhibitor P. The relationship between μi and μmax and the concentration of the inhibitor P was describes using the Logistic Dose Response equation, which reads: μi/μmax=1/(1+(p/P0.5)^b) (Jungbauer, A. (2001). The logistic dose response function: a robust fitting function for transition phenomena in life sciences. J. Clinical Ligand Assay 24: 270-274). In this equation p represents the concentration of inhibitor P and p0.5 the concentration of P where p=0.5 μmax; μmax is the maximum specific growth rate that is the specific growth rate in the absence of inhibitor P, b is a dimensionless quantity, which determines the relationship between μi and p. Combining the Monod and Logistic Dose Response equation it can be written as: μ=μmax (s/Ks+s)/(1+(p/p0.5)^b). In batch culture where s is usually many times higher than Ks this equation reduces to μ=μmax/(1+(p/p0.5)^b). When comparing different organisms grown under the same conditions, or the same organism grown under different conditions, it is more meaningful to use relative growth rate, rather than absolute growth rates as standards of comparison. Relative growth rate (O) is the ratio of growth rate (μ) to maximum growth rate (μmax) i.e. O=μ/μmax. It can be seen that while μ and μmax have the dimensions of (time)^−1, their ratio O is dimensionless, i.e. a pure number. Similarly we can define the relative inhibitor concentration ε as p/p0.5. The reduced Monod and Logistic Dose Response equation can now be written as: O=1/(1+ε^b).

[2] = test system: Escherichia coli serotype O157:H7 (ATCC 700728); assay: as above; assay type: cell-based
Protocol: as §1

[3] = test system: Salmonella entiritidis (ATCC 13076); assay: as above; assay type: cell-based
Protocol: as §1

[4] = test system: Salmonella Typhimurium ATCC 13311; assay: Decontamination of inoculated chicken filets, surviving counts; assay type: cell-based
Protocol: Salmonella Typhimurium ATCC 13311 and Escherichia coli O157:H7 ATCC 700728 were grown in sterile screw capped tubes containing Brain heart infusion broth for 18-24 hours at 30° C.
Chicken filets (150-200 g) were trimmed, vacuum packaged and stored at 4-7° C. Filets were subsequently sterilized by gamma-irradiation (average radiation dose: 12 kiloGray).
1 ml of an overnight culture of Salmonella Typhimurium in brain heart infusion both was diluted 1000 times with sterile 0.8% (w/v) NaCl and 0.1% (w/v) peptone. 0.5 ml of this diluted culture was transferred to one side of the filet. The inoculum was distributed by gently rubbing the entire surface of the filet. This was repeated for the other side of the filet. Inoculation was carried out at 6° C. Inoculated filets were rested for 60-120 min at 6° C. to allow attachment of the cells.
Chicken filets were briefly dipped and completely submersed in 1 l of a solution containing the appropriate formulation and then transferred to 400 ml Bagfilter® lateral filter bags (Interscience, St Nom, France) containing 5 ml of the appropriate formulation. Bags were vacuum-sealed and incubated at 12° C. for up to 7 days until further analysis. Time zero samples were plated within 30 min after dipping.
Surviving Salmonella Typhimurium on chicken filets were counted as follows: a sealed bag was opened and to this was added 2 times the net weight sterile dilution fluid ([…] NaCl and 0.1% (w/v) bacteriological peptone). Duplicate filets were homogenized for 1 min. in a Bagmixer® 400 paddle labblender (Interscience, St Nom, France). 50 μl of the homogenates or dilutions thereof were plated on duplicate Salmonella chromogenic agar plates (CM1007) with cefsulodin, novobiocin supplement (SR0194) (Oxoid, Basingstoke, United Kingdom) using an Eddyjet type 1.23 spiral plater (IUL Instruments, Barcelona, Spain). Plates were incubated for 24-48 hours at 30° C. and then counted. Salmonella numbers were expressed as log10 colony forming units per ml homogenate.
The compositions of the formulations that were studied are shown in Table 2. ε-Polylysine and mono/di glycerides were dissolved in demineralised water and sterilized for 20 min at 120° C.

[5] = test system: Escherichia coli (ATCC 8739); assay: Bioscreen growth rate in brain heart infusion broth (synergy study); assay type: cell-based
Protocol: as §1

[6] = test system: gram-positive and -negative bacteria; details: Shima et al. (November 1984); cited from earlier work
[7] = 0.090% (w/w) C10-glycerol ester alone
[8] = 0.120% (w/w) C8-glycerol ester alone
[9] = 0.0225% (w/w) polylysine alone, C8 part of Table 1
[10] = 0.0225% (w/w) polylysine alone, C10 part of Table 1

Substance: glyceryl mono/di decanoate [C10-glycerol ester]
- Observed Relative Growth Rate [1, 7]: 0.4613
- Observed Relative Growth Rate [2, 7]: 0.8685
- Observed Relative Growth Rate [3, 7]: 0.8960
- Salmonella Typhimurium on chicken filets ([4]; 0.05% (w/v) alone, 12° C., 0 days): 3.72 log10 colony forming units (CFU)/ml
- Salmonella Typhimurium on chicken filets ([4]; 0.05% (w/v) alone, 12° C., 1 day): 3.98 log10 colony forming units (CFU)/ml
- Salmonella Typhimurium on chicken filets ([4]; 0.05% (w/v) alone, 12° C., 2 days): 4.32 log10 colony forming units (CFU)/ml
- Salmonella Typhimurium on chicken filets ([4]; 0.05% (w/v) alone, 12° C., 5 days): 6.0 log10 colony forming units (CFU)/ml
- Salmonella Typhimurium on chicken filets ([4]; 0.05% (w/v) alone, 12° C., 6 days): 7.62 log10 colony forming units (CFU)/ml
- Salmonella Typhimurium on chicken filets ([4]; 0.05% (w/v) alone, 12° C., 7 days): 7.85 log10 colony forming units (CFU)/ml

Substance: glyceryl mono/di octanoate [C8-glycerol ester]
- Observed Relative Growth Rate [1, 8]: 0.4035
- Observed Relative Growth Rate [2, 8]: 0.9410
- Observed Relative Growth Rate ([5]; 0.120% (w/w) C8-glycerol ester alone, broth pH 6.1-6.2, 37° C.): 1.0845
- Observed Relative Growth Rate [3, 8]: 0.5220
- Salmonella Typhimurium on chicken filets ([4]; 0.2% (w/v) alone, 12° C., 0 days): 3.82 log10 colony forming units (CFU)/ml
- Salmonella Typhimurium on chicken filets ([4]; 0.2% (w/v) alone, 12° C., 1 day): 3.81 log10 colony forming units (CFU)/ml
- Salmonella Typhimurium on chicken filets ([4]; 0.2% (w/v) alone, 12° C., 2 days): 4.03 log10 colony forming units (CFU)/ml
- Salmonella Typhimurium on chicken filets ([4]; 0.2% (w/v) alone, 12° C., 5 days): 6.41 log10 colony forming units (CFU)/ml
- Salmonella Typhimurium on chicken filets ([4]; 0.2% (w/v) alone, 12° C., 6 days): 7.48 log10 colony forming units (CFU)/ml
- Salmonella Typhimurium on chicken filets ([4]; 0.2% (w/v) alone, 12° C., 7 days): 7.39 log10 colony forming units (CFU)/ml

Substance: ε-Polylysine
- Observed Relative Growth Rate [1, 9]: 0.9653
- Observed Relative Growth Rate [1, 10]: 0.9910
- Observed Relative Growth Rate [2, 9]: 0.8315
- Observed Relative Growth Rate [2, 10]: 0.5850
- Observed Relative Growth Rate [5, 9]: 0.7570
- Observed Relative Growth Rate [3, 9]: 0.9945
- Observed Relative Growth Rate [3, 10]: 0.9600
- concentrations effectively used against bacteria [6]: 1˜8 microgram per ml
- Salmonella Typhimurium on chicken filets ([4]; 0.1% (w/v) alone, 12° C., 0 days): 3.04 log10 colony forming units (CFU)/ml
- Salmonella Typhimurium on chicken filets ([4]; 0.1% (w/v) alone, 12° C., 1 day): 2.04 log10 colony forming units (CFU)/ml
- Salmonella Typhimurium on chicken filets ([4]; 0.1% (w/v) alone, 12° C., 2 days): 2.15 log10 colony forming units (CFU)/ml
- Salmonella Typhimurium on chicken filets ([4]; 0.1% (w/v) alone, 12° C., 5 days): 4.04 log10 colony forming units (CFU)/ml
- Salmonella Typhimurium on chicken filets ([4]; 0.1% (w/v) alone, 12° C., 6 days): 4.26 log10 colony forming units (CFU)/ml
- Salmonella Typhimurium on chicken filets ([4]; 0.1% (w/v) alone, 12° C., 7 days): 5.35 log10 colony forming units (CFU)/ml
- killing or growth suppressing effect (in words) ([4]; individual components on chicken filets, 12° C.): reduced the cell numbers
- reduction in numbers ([4]; single addition, after one day of incubation): 2 log10

— patent US20090082443A1, “Use of fatty acid esters of glycerol combined with polylysine against gram-negative bacteria” (PURAC BIOCHEM B.V., priority 2007, published 2009)
